Assays:
Experiment in all cases: microfluidic mobility shift (LabChip), FAM-acetylated peptide substrate
Assay type in all cases: biochemical
HDAC4 = molecular target: T1, HDAC4 (Homo sapiens, UniProt P56524); settings: read-out: HDAC IC50 (μM) without preincubation / HDAC4
T1 construct: purified commercial enzyme from BPS Bioscience
From the text: microfluidic mobility shift (LabChip), FAM-acetylated peptide substrate on HDAC4

HDAC6 = molecular target: T2, HDAC6 (Homo sapiens, UniProt Q9UBN7); settings: read-out: HDAC IC50 (μM) without preincubation / HDAC4
T2 construct: purified commercial enzyme from BPS Bioscience
T2 sequence (Q9UBN7 1-1215): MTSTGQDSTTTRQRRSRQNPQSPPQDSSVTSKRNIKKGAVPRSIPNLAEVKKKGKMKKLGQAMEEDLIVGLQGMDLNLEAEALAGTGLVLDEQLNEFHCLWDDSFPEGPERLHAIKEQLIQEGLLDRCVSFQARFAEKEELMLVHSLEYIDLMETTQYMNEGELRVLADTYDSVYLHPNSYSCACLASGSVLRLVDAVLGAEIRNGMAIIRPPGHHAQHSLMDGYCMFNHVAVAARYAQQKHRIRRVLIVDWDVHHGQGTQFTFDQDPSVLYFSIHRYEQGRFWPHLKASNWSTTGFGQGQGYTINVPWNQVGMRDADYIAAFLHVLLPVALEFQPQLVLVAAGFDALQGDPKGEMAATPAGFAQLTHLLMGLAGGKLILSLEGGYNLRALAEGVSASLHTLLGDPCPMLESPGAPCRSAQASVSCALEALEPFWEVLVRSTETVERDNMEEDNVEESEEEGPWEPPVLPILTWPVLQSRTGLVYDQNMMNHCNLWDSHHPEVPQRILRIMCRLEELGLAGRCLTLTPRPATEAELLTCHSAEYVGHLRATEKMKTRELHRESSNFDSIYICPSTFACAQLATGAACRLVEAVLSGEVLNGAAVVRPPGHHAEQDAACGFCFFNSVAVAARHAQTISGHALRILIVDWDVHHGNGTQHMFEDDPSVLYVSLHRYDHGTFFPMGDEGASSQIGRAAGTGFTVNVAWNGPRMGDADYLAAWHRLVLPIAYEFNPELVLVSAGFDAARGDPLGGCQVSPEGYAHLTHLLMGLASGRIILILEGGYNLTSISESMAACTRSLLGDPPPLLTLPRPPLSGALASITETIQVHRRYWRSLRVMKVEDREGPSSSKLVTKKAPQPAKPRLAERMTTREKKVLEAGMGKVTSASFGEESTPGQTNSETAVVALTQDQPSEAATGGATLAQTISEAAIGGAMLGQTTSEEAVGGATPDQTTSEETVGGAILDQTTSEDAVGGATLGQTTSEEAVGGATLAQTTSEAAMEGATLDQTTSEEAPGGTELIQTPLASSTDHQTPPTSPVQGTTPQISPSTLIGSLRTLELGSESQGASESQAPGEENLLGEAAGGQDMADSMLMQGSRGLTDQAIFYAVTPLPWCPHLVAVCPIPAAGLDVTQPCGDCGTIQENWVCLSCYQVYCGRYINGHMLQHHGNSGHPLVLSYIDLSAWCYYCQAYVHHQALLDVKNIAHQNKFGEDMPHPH
From the text: microfluidic mobility shift (LabChip), FAM-acetylated peptide substrate on HDAC6

HDAC7 = molecular target: T3, HDAC7 (Homo sapiens, UniProt Q8WUI4); settings: read-out: HDAC IC50 (μM) without preincubation / HDAC4
T3 construct: purified commercial enzyme from BPS Bioscience
T3 sequence (Q8WUI4 518-952 limits assumed): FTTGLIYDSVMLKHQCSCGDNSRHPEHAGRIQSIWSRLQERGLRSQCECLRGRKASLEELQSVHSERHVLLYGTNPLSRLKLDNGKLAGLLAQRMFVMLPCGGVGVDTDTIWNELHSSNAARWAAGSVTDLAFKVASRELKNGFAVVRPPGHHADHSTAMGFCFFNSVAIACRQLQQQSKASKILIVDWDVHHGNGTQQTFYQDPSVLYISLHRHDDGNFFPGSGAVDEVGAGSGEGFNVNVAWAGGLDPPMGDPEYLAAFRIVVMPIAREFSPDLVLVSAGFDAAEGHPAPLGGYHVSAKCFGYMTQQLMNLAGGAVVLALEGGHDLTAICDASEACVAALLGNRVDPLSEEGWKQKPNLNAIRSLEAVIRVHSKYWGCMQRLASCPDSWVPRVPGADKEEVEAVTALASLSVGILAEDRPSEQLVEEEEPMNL
From the text: microfluidic mobility shift (LabChip), FAM-acetylated peptide substrate on HDAC7

HDAC2 = molecular target: T4, HDAC2 (Homo sapiens, UniProt Q92769); settings: without preincubation; […] min, room temperature, pH […] substrate; read-out: HDAC IC50 (μM) without preincubation / HDAC2
T4 construct: purified commercial enzyme from BPS Bioscience
From the text: microfluidic mobility shift (LabChip), FAM-acetylated peptide substrate on HDAC2

HDAC3 = molecular target: T5, HDAC3 (Homo sapiens, UniProt O15379); settings: without preincubation; […] min, room temperature, pH […] substrate; read-out: HDAC IC50 (μM) without preincubation / HDAC3
T5 construct: purified commercial enzyme from BPS Bioscience; with Nuclear receptor corepressor 2
T5 sequence (O15379 whole entry): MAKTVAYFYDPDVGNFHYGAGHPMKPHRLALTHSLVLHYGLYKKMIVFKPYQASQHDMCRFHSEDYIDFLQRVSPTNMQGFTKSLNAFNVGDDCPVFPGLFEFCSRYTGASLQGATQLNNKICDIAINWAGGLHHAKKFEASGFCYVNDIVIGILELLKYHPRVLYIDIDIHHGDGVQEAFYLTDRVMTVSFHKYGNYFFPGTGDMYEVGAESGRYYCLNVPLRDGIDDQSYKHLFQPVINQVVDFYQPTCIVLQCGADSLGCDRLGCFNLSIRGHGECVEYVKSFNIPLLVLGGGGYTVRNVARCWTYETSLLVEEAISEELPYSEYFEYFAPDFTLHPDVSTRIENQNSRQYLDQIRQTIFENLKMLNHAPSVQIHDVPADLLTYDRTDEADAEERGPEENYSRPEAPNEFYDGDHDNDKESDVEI
T5 sequence (Q9Y618 whole entry partner): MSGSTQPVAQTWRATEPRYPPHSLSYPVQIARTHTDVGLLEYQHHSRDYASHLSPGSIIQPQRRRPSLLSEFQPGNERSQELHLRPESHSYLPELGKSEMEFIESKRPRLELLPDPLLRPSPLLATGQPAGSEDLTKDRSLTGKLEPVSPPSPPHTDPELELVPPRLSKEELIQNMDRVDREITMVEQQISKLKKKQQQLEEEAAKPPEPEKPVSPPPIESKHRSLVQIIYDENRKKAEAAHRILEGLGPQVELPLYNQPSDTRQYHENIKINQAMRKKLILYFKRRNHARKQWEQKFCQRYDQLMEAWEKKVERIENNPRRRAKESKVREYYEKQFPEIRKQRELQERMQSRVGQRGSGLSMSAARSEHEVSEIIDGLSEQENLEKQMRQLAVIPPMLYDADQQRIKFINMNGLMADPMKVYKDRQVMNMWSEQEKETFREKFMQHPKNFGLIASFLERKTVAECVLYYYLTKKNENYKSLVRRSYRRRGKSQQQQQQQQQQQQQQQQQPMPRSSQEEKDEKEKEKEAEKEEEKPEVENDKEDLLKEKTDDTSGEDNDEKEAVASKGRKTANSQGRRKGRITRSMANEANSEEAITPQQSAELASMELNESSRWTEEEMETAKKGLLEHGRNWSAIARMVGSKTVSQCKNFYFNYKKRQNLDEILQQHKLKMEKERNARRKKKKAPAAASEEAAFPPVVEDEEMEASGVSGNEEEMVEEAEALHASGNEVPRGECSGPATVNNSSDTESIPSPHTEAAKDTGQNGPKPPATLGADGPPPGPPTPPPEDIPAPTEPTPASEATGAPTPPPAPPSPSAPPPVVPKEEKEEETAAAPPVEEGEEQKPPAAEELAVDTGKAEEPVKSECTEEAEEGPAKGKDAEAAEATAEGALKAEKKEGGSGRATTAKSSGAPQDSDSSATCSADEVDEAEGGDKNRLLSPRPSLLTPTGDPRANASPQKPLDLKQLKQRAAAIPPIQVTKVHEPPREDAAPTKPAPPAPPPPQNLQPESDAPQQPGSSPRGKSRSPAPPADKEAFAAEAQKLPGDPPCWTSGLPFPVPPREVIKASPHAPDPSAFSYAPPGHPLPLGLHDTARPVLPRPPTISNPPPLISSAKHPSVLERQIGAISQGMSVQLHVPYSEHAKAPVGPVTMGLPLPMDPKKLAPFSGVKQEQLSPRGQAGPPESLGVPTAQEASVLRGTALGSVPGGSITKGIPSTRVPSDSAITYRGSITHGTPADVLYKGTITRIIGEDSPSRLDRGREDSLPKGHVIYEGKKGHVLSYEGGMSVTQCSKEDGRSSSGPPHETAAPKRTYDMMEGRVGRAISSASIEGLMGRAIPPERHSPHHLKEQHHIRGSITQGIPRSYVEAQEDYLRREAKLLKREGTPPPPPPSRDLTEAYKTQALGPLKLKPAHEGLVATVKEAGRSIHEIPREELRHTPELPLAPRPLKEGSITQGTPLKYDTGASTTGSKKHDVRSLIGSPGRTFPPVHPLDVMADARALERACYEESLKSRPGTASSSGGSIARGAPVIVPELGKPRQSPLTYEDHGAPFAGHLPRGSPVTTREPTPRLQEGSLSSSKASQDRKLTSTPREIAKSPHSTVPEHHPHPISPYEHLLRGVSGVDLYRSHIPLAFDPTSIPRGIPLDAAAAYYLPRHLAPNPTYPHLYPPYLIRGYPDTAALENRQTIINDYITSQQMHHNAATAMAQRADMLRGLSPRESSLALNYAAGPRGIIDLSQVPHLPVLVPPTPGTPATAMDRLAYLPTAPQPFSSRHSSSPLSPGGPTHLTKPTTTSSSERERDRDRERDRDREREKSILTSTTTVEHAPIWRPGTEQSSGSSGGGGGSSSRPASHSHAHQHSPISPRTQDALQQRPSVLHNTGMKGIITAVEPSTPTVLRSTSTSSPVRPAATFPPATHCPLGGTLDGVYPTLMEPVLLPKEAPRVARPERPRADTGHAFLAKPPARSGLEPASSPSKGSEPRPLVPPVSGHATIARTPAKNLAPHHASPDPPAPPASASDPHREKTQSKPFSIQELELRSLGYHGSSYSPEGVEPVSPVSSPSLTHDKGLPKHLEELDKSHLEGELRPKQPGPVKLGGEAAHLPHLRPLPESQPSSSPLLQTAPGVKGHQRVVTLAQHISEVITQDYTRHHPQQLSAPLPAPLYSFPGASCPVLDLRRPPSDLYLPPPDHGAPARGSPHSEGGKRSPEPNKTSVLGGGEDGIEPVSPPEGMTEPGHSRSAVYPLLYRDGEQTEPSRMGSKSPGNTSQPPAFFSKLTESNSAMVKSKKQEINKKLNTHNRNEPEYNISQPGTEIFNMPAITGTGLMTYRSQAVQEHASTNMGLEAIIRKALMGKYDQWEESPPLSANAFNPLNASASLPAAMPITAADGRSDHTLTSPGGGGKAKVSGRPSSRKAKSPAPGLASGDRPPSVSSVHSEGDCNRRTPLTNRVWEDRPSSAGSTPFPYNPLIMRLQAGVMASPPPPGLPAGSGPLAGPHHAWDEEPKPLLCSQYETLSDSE
From the text: microfluidic mobility shift (LabChip), FAM-acetylated peptide substrate on HDAC3

HDAC9 = molecular target: T6, HDAC9 (Homo sapiens, UniProt Q9UKV0); settings: read-out: HDAC IC50 (μM) without preincubation / HDAC9
T6 construct: purified commercial enzyme from BPS Bioscience
From the text: microfluidic mobility shift (LabChip), FAM-acetylated peptide substrate on HDAC9

HDAC1 = molecular target: T7, HDAC1 (Homo sapiens, UniProt Q13547); settings: without preincubation; […] min, room temperature, pH […] substrate; read-out: HDAC IC50 (μM) without preincubation / HDAC1
T7 construct: purified commercial enzyme from BPS Bioscience
T7 sequence (Q13547 whole entry): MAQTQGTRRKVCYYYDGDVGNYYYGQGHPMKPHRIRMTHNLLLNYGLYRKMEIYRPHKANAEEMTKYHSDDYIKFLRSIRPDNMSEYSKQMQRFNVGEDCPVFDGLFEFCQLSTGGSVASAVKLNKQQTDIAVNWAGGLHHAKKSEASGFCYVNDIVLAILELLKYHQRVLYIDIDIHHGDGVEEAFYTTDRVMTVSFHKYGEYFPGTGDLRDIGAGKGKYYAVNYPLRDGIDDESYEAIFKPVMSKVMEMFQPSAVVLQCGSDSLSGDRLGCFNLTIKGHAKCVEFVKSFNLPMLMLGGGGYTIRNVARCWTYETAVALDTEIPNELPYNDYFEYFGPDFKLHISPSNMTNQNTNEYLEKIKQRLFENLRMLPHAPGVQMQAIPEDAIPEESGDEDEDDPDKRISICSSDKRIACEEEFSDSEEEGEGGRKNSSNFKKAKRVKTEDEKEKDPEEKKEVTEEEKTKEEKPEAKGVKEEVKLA
From the text: microfluidic mobility shift (LabChip), FAM-acetylated peptide substrate on HDAC1

HDAC5 = molecular target: T8, HDAC5 (Homo sapiens, UniProt Q9UQL6); settings: read-out: HDAC IC50 (μM) without preincubation / HDAC5
T8 construct: purified commercial enzyme from BPS Bioscience
T8 sequence (Q9UQL6 whole entry): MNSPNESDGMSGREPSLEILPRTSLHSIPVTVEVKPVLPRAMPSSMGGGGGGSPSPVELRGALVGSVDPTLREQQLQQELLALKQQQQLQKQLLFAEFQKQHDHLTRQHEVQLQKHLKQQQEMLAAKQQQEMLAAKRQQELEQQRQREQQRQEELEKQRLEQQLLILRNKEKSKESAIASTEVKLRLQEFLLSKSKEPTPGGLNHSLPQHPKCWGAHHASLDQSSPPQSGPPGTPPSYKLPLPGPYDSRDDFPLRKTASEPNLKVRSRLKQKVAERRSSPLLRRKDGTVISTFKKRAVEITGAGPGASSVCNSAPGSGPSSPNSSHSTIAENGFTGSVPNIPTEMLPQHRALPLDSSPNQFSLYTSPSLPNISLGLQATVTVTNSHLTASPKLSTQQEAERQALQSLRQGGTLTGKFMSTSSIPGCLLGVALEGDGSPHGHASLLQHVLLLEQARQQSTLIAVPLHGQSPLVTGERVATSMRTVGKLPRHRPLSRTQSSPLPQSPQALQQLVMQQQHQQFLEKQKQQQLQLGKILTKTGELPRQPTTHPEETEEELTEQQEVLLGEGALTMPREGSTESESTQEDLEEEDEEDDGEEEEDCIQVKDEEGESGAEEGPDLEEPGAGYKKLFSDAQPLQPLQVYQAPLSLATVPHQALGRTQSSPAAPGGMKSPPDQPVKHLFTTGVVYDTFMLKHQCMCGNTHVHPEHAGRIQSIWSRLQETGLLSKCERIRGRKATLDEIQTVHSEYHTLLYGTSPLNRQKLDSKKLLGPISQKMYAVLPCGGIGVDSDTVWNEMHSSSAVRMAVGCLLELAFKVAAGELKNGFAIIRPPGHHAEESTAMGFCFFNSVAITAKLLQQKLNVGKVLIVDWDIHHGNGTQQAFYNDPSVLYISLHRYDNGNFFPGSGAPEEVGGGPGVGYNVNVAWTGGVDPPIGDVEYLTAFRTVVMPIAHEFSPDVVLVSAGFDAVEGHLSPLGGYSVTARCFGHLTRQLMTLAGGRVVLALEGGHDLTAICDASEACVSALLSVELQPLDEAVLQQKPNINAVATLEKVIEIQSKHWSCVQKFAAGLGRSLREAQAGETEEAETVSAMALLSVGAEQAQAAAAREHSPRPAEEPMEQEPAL
From the text: microfluidic mobility shift (LabChip), FAM-acetylated peptide substrate on HDAC5

HDAC8 = molecular target: T9, HDAC8 (Homo sapiens, UniProt Q9BY41); settings: read-out: HDAC IC50 (μM) without preincubation / HDAC4
T9 construct: purified commercial enzyme from BPS Bioscience
T9 sequence (Q9BY41 1-377): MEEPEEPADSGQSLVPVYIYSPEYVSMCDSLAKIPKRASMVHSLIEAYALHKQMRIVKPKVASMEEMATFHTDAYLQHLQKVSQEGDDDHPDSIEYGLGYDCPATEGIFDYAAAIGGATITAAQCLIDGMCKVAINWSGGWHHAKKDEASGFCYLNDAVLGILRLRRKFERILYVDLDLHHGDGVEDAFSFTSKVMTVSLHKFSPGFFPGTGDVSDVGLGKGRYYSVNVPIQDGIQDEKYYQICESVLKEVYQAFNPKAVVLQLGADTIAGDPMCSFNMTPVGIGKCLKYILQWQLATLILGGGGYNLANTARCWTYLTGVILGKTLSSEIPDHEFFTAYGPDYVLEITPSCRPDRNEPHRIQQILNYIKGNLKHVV
From the text: microfluidic mobility shift (LabChip), FAM-acetylated peptide substrate on HDAC8

T1 sequence (P56524 627-1084 limits assumed): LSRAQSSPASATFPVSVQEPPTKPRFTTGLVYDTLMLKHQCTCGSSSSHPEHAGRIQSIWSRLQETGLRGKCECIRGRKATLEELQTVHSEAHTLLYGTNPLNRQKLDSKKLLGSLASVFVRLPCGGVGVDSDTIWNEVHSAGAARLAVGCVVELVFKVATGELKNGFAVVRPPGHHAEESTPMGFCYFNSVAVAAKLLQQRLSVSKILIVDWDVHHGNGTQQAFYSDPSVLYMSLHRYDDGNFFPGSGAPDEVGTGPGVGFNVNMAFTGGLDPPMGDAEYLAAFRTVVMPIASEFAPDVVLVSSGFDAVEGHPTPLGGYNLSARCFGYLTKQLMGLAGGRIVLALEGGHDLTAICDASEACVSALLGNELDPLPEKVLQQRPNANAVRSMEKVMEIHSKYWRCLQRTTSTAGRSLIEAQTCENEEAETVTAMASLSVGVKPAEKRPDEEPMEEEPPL

Structure (SMILES): CC(=O)Nc1ccc(C(=O)Nc2ccc(F)cc2N)cc1 [BRD3308]
- IC50 (HDAC4): > 33 µM
- IC50 (HDAC6): > 33 µM
- IC50 (HDAC7): > 33 µM
- IC50 (HDAC2): 1.34 µM
- IC50 (HDAC3): 0.054 µM
- IC50 (HDAC9): > 33 µM
- IC50 (HDAC1): 1.26 µM
- IC50 (HDAC5): > 33 µM
- IC50 (HDAC8): > 33 µM
